What all share (type): biochemical
The target in one test is T1, EF (edema factor) (Bacillus anthracis, UniProt P40136).
T1 construct: gene cya
To be noted: read-out: EF / KM.

The target in test [1] is T2, CyaA-N (Bordetella pertussis, UniProt P0DKX7).
T2 construct: gene cya; catalytic domain, amino acids 1 to 373; plasmid pExCyaA-N; purified from E. coli; assayed with calf brain calmodulin; with Calmodulin
To be noted: read-out: CyaA-N / KM.

For test [2], the target named is T2, CyaA-N.

The values that follow come from publication PMC3726482 (PLoS ONE, 2013).

T1 sequence (P40136 whole entry, looked up): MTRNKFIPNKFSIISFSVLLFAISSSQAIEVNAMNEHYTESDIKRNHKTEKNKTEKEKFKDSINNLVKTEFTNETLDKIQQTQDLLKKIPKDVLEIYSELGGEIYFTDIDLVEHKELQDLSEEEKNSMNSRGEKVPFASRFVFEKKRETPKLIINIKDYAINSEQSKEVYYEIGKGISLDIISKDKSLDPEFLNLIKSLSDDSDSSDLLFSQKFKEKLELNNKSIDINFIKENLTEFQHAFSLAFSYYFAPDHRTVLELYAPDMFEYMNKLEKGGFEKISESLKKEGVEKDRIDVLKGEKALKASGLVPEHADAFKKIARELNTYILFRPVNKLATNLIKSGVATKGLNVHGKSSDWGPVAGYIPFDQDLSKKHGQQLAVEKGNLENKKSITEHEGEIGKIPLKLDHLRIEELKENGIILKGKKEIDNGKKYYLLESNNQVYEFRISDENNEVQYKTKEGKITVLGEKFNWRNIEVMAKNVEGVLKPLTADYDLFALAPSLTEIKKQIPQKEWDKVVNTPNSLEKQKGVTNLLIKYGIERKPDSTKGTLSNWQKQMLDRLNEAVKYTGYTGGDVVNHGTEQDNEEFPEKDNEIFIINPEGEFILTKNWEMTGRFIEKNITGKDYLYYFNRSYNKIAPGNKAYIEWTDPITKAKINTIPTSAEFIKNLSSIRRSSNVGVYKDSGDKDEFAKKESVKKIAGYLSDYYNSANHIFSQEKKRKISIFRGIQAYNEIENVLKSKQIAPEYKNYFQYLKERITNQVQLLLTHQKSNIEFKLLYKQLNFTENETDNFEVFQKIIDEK
T2 sequence (P0DKX7 whole entry, looked up, the tested form may be a part): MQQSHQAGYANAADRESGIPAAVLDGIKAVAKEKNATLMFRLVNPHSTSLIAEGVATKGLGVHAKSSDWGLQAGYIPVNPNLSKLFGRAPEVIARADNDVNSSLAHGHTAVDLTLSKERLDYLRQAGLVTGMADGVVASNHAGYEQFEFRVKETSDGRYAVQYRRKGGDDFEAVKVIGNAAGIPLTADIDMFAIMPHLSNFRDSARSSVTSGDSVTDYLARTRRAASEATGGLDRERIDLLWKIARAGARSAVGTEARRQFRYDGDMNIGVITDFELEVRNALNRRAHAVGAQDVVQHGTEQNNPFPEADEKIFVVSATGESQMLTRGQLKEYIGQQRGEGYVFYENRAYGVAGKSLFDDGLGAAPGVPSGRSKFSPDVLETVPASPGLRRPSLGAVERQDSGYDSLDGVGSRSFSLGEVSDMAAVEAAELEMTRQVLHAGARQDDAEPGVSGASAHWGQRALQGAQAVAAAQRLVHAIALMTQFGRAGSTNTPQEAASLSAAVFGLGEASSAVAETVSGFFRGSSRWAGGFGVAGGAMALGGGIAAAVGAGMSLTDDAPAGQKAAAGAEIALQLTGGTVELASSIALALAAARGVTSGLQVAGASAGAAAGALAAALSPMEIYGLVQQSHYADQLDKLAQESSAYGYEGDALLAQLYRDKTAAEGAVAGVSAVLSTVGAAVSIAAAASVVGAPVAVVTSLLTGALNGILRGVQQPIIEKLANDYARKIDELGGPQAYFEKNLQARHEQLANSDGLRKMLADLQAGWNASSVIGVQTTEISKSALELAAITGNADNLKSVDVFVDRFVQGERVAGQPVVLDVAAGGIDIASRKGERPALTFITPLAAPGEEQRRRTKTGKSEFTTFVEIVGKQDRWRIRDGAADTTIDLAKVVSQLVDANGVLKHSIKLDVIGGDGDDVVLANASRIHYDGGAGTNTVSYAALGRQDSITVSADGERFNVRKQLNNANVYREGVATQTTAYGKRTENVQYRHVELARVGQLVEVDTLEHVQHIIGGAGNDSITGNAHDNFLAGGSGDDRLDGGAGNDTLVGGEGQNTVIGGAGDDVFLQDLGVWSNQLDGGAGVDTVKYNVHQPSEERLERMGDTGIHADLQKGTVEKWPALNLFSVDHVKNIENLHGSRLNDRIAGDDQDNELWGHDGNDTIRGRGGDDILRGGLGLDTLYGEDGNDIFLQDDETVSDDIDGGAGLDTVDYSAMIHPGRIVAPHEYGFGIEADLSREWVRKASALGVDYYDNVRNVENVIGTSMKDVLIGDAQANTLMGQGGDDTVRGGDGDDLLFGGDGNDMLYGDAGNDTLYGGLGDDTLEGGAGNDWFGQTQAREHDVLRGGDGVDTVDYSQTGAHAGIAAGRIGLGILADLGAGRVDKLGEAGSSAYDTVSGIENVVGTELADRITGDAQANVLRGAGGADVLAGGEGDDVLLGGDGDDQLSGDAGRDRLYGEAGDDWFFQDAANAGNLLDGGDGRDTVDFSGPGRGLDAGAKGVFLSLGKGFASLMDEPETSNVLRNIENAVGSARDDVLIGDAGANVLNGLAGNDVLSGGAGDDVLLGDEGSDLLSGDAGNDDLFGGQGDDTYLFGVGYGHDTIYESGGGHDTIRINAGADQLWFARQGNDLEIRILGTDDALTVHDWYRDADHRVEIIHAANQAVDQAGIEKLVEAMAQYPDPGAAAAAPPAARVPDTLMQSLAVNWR

As to `Nc1ncnc2c1ncn2[C@@H]1O[C@H](COP(=O)(O)OP(=O)(O)OP(=O)(O)O)[C@@H](O)[C@H]1O` [ATP], the Km at EF (edema factor) turned out to be 78.1 ± 8.7 µM; on CyaA-N [1], 171 ± 22.8 µM.
The corresponding values for `Nc1ccn([C@@H]2O[C@H](COP(=O)(O)OP(=O)(O)OP(=O)(O)O)[C@@H](O)[C@H]2O)c(=O)n1` [CTP] are 367 ± 116 µM and 475 ± 139 µM.
For `Nc1nc2c(ncn2[C@@H]2O[C@H](COP(=O)(O)OP(=O)(O)OP(=O)(O)O)[C@@H](O)[C@H]2O)c(=O)[nH]1` [GTP], in that order: 85 ± 13 µM and 191 ± 25 µM.
In the case of `O=P(O)(O)OP(=O)(O)OP(=O)(O)OC[C@H]1O[C@@H](n2cnc3c(O)ncnc32)[C@H](O)[C@@H]1O` [ITP], the Km on EF (edema factor) was 507 ± 108 µM; at CyaA-N [1], 329 ± 44 µM.
As to `Cc1cn([C@H]2C[C@H](O)[C@@H](COP(=O)(O)OP(=O)(O)OP(=O)(O)O)O2)c(=O)[nH]c1=O` [TTP], the Km at CyaA-N [1] was found to be 19 ± 5 µM. Further, on CyaA-N [2], the “CyaA-N / KM” value is 1332 ± 365 µM.
For the compound `O=c1ccn([C@@H]2O[C@H](COP(=O)(O)OP(=O)(O)OP(=O)(O)O)[C@@H](O)[C@H]2O)c(=O)[nH]1` [UTP], the Km on EF (edema factor) was found to be 792 ± 299 µM; at CyaA-N [1], 599 ± 59 µM.
`O=c1[nH]c(=O)c2ncn([C@@H]3O[C@H](COP(=O)(O)OP(=O)(O)OP(=O)(O)O)[C@@H](O)[C@H]3O)c2[nH]1` [XTP]: the Km on CyaA-N [1] was 37 ± 7 µM. Further, the “CyaA-N / KM” value at CyaA-N [2] was found to be 309 ± 57 µM.
